Experimental findings from patent US11911396B2, “Use of compound in preparation of drug for treating cerebral small vessel disease” (GUANGZHOU CELLPROTEK PHARMACEUTICAL CO., LTD, priority 2017, dated 2024) are described below.

Molecules are shown by their SMILES.

The test system of one assay is Iba-1. As to the kind of experiment: Iba-1 immunohistochemical staining of prefrontal cortex brain tissue, acute hypobaric hypoxia model. Type of assay: in vivo, cynomolgus monkeys. An excerpt: FIG. 2. Activation of microglia in the brain tissue of the prefrontal cortex of cynomolgus monkeys. A. Iba-1 immunohistochemical staining of the brain tissue of the prefrontal cortex of cynomolgus monkeys, Iba-1 serves as a marker for microglia activation. The black scale bar is 25 μm and the red scale bar is 200 μm. B. Statistics of Iba-1 relative optical density values. Image pro plus software was used to perform optical density scanning on the immunohistochemical images of each group to obtain the optical density values, which were then normalized with the NN group. NN: Normobaric Normoxia group (n=4); HH: Hypobaric Hypoxia group (n=4); HH+Triol: Hypobaric Hypoxia with Triol administration group (n=3); HH+PROG: Hypobaric Hypoxia with control drug administration group (n=4). […]
The experiment was carried out according to routine immunohistochemical procedures, as follows: the thickness of paraffin sections of prefrontal cortex tissue of cynomolgus monkeys was 5 μm, and fresh paraffin sections were baked overnight at 37° C. […] Imaging: Nikon ECLIPSE Ti-U inverted fluorescence microscope was used to take pictures of the sections in the bright field, by adjusting the appropriate exposure intensity and background white balance, and fixing the shooting adjustments to take pictures of each group of slices from multiple views and by multiples folds. […]

In the next assay the test system is CD163. As to the kind of experiment: Western blot of CD163 in prefrontal cortex brain tissue, acute hypobaric hypoxia model. The class given is in vivo, cynomolgus monkeys. As to conditions: FIGS. 4A and 4B. An excerpt:
FIG. 4. Triol enhanced the clearance of free hemoglobin in brain tissue by up-regulating CD163 and Heme Oxygenase-1 (HO-1) protein levels. A. Protein expression of hemoglobin scavenger receptor CD163 and heme oxygenase HO-1 in the brain tissue of the prefrontal cortex of cynomolgus monkeys; B. Statistics of protein relative gray scan values. The gray value was obtained by scanning with Image Lab software, and the relative value was obtained after normalizing with α-Tubulin. NN: Normobaric Normoxia group (N=3); HH: Hypobaric Hypoxia group (N=3); HH+Triol: Hypobaric Hypoxia with Triol administration group (N=3); HH+PROG: Hypobaric Hypoxia with progesterone administration group (N=3). […]
1) Preparation of protein samples (see the instructions of M-PER protein lysate): After the cells had been processed for the specified time, the medium was aspirated and then washed with 4° C. pre-chilled PBS (0.01M pH7.2˜7.3) for 3 times. […] 2) BCA protein quantification (see the instructions of BCA protein quantification kit): corresponding components were added to a 96-well detection plate by the ratio of quantification reagent A solution:B solution:ddH2O:protein=100:2:7.5:5, and albumin standards diluted in gradient concentration were added to draw a standard curve. […] After the reaction, the absorbance of each well at a wavelength of 562 nm was detected using a microplate reader. […]
In general terms: A western blot detects proteins with antibodies after separation by electrophoresis.

With `C[C@@]12CCCC1C1C[C@@H](O)[C@@]3(O)C[C@@H](O)CC[C@]3(C)C1CC2` (stereo partly drawn) [Triol, 5α-androst-3β,5,6β-triol], the “number of cells in the activation-like morphology (microglia)” value with Iba-1 (FIG. 2) is given as “decreased”. Besides, the “expression of Iba-1” value with Iba-1 (immunohistochemistry, FIG. 2B) is given as “decreased significantly”. For the same compound, in the assay with CD163, the “down-regulation of CD163 expression caused by acute hypobaric hypoxia” value is recorded as “significantly restored”.
